Laboratory results taken from ChEMBL document CHEMBL1143278, “3-Aminoxypropionate-based linker system for cyclization activation in prodrug design” (Bioorg Med Chem Lett, 2009).

Columns and labels:
[1] = Stability assessed as cyclization activation in phosphate buffer at pH 7.4 by HPLC; format: physicochemical
[2] = Stability assessed as cyclization activation in phosphate buffer at pH 6.0 by HPLC; format: physicochemical
[3] = Stability assessed as formation of ((2R,3S,5R)-5-(5-fluoro-2,4-dioxo-3,4-dihydropyrimidin-1(2H)-yl)-3-hydroxytetrahydrofuran-2-yl)methyl 3-(aminooxy)-2,2-dimethylpropanoate in phosphate buffer at pH 7.4 in presence of alpha-chymotrypsin; format: ADME
[4] = Stability in phosphate buffer at pH 7.4 in absence of alpha-chymotrypsin; format: ADME

Row | SMILES | half-life [1] [h] | half-life [2] [h] | t1/2 [3] [h] | Stability [4]
1 | Cl.NOCCC(=O)OC[C@H]1O[C@@H](n2cc(F)c(=O)[nH]c2=O)C[C@@H]1O | 1.14 | 22.9 |  | 
2 | CC(C)(CON)C(=O)OC[C@H]1O[C@@H](n2cc(F)c(=O)[nH]c2=O)C[C@@H]1O.Cl | 0.722 | 23.4 |  | 
3 | CC(C)(CONC(=O)[C@H](Cc1ccccc1)NC(=O)OCc1ccccc1)C(=O)OC[C@H]1O[C@@H](n2cc(F)c(=O)[nH]c2=O)C[C@@H]1O |  |  | 0.608 | Stable
